The source of these data is ChEMBL document CHEMBL5678818, “Discovery of potent SOS1 inhibitors that block RAS activation via disruption of the RAS-SOS1 interaction” (Proc Natl Acad Sci U S A, 2019).

Structures are written as SMILES.

Experiment [1] concerns the target T1, Interleukin-1 receptor-associated kinase 4 (Homo sapiens) (UniProt Q9NWZ3).
T1 sequence (whole entry): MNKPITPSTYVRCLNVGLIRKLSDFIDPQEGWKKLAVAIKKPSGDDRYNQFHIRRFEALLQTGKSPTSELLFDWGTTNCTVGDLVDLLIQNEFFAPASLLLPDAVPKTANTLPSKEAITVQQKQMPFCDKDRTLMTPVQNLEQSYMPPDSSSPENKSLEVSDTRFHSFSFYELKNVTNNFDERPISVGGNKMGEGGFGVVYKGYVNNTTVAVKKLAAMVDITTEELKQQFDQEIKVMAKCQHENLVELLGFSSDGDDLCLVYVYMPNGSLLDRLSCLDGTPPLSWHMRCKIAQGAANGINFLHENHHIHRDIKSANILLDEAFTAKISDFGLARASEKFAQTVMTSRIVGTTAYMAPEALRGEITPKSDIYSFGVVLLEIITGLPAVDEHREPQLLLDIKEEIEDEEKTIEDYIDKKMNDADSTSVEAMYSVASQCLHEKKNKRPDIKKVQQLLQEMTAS
The experiment is described as follows: Inhibition of IRAK4 (unknown origin) assessed as residual activity at 100 nM by KINOMEscan analysis relative to control.

Experiment [2] has as its target Tyrosine-protein kinase ABL1 (Homo sapiens) (UniProt P00519). The experiment is described as follows: Inhibition of phosphorylated ABL1 (unknown origin) assessed as residual activity at 100 nM by KINOMEscan analysis relative to control.
Experiment [3] deals with T2, Dual specificity tyrosine-phosphorylation-regulated kinase 2 (Homo sapiens) (UniProt Q92630).
T2 sequence (whole entry): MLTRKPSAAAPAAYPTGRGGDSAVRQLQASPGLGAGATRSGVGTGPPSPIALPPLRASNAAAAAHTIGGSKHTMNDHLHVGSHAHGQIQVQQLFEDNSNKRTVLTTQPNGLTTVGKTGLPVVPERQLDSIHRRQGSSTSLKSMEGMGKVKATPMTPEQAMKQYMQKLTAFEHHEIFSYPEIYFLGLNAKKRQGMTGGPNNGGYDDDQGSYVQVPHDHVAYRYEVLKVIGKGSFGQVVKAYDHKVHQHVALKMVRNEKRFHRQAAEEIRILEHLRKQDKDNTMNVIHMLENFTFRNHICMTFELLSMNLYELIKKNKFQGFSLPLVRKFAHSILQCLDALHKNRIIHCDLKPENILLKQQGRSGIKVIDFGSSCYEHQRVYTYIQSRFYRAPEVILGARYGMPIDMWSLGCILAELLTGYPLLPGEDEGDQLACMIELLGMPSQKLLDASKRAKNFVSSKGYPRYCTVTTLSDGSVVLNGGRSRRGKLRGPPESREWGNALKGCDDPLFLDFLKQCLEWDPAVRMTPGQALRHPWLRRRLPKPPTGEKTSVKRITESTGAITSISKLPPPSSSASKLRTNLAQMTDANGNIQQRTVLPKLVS
The experiment is described as follows: Inhibition of DYRK2 (unknown origin) assessed as residual activity at 100 nM by KINOMEscan analysis relative to control.

Experiment [4] has as its target Mitogen-activated protein kinase kinase kinase 1 (Homo sapiens) (UniProt Q13233). Kind of experiment: Inhibition of MAP3K1 (unknown origin) assessed as residual activity at 100 nM by KINOMEscan analysis relative to control.
Experiment [5] concerns the target Casein kinase I isoform gamma-1 (Homo sapiens) (UniProt Q9HCP0). The experiment is described as follows: Inhibition of CSNK1G1 (unknown origin) assessed as residual activity at 100 nM by KINOMEscan analysis relative to control.
Experiment [6] concerns the target Bone morphogenetic protein receptor type-1B (Homo sapiens) (UniProt O00238). The experiment is described as follows: Inhibition of BMPR1B (unknown origin) assessed as residual activity at 100 nM by KINOMEscan analysis relative to control.
Experiment [7] has as its target T3, Serine/threonine-protein kinase D1 (Homo sapiens) (UniProt Q15139).
T3 sequence (whole entry): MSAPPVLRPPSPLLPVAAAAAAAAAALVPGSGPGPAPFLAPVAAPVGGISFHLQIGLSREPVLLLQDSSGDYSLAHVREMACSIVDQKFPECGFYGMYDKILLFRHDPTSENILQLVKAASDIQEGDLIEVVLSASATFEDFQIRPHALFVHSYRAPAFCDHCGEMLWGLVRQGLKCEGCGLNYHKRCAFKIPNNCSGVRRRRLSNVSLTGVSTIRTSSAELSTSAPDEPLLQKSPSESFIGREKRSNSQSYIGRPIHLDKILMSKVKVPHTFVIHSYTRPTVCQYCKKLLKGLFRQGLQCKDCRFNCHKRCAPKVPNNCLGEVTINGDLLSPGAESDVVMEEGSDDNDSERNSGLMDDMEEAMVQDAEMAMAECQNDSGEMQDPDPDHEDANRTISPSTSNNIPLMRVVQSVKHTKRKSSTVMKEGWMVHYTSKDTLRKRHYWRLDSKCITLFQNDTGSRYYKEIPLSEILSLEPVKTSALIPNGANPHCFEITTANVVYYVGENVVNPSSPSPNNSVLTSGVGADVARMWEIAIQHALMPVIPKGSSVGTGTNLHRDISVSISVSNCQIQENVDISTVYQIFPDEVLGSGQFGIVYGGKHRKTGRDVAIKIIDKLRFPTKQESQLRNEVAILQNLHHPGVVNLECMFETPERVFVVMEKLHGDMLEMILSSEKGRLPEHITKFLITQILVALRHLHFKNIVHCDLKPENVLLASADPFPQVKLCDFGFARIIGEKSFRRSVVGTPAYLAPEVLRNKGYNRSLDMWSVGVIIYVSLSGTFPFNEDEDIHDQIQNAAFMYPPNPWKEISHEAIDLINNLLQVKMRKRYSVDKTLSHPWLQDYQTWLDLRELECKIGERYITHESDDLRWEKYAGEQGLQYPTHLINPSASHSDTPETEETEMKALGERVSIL
The experiment is described as follows: Inhibition of PRKD1 (unknown origin) assessed as residual activity at 100 nM by KINOMEscan analysis relative to control.

Experiment [8] has as its target Fibroblast growth factor receptor 4 (Homo sapiens) (UniProt P22455). Kind of experiment: Inhibition of FGFR4 (unknown origin) assessed as residual activity at 100 nM by KINOMEscan analysis relative to control.
Experiment [9] has as its target Fibroblast growth factor receptor 2 (Homo sapiens) (UniProt P21802). The experiment is described as follows: Inhibition of FGFR2 (unknown origin) assessed as residual activity at 100 nM by KINOMEscan analysis relative to control.

Fibroblast growth factor receptor 4 (Homo sapiens), sequence (P22455 22-802 limits assumed): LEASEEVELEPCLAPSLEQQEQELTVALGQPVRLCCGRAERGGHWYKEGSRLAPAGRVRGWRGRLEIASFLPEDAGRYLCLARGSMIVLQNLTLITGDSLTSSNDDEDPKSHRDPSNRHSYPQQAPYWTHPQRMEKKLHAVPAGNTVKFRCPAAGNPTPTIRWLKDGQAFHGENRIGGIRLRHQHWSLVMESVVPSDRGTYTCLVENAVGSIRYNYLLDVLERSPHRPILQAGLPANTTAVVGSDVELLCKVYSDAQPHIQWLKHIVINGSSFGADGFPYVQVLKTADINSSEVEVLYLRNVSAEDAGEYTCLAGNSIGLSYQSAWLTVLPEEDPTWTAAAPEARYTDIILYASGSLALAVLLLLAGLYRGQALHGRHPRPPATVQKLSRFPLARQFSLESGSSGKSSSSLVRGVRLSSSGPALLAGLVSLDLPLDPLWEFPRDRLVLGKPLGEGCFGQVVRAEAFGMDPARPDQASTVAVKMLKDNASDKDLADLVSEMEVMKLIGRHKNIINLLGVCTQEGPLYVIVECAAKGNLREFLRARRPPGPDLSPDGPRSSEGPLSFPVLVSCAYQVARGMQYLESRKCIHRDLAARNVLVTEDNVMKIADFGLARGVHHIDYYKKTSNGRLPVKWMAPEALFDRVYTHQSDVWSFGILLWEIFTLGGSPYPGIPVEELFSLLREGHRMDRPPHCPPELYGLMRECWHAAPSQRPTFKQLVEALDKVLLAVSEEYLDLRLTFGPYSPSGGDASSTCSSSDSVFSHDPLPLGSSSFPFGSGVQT
Casein kinase I isoform gamma-1 (Homo sapiens), sequence (Q9HCP0 whole entry, looked up, canonical isoform): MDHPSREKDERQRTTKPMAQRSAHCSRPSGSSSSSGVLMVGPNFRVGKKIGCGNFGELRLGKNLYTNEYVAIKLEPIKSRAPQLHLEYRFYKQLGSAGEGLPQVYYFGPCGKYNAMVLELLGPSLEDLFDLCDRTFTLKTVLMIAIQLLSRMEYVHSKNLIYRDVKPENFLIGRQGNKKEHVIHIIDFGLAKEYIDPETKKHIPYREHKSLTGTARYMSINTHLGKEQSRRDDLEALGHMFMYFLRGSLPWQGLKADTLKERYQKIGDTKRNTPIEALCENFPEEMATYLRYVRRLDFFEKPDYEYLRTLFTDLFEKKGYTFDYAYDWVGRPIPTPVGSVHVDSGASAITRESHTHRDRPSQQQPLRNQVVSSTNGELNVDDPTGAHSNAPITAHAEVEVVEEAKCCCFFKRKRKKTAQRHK
Mitogen-activated protein kinase kinase kinase 1 (Homo sapiens), sequence (Q13233 whole entry, canonical isoform): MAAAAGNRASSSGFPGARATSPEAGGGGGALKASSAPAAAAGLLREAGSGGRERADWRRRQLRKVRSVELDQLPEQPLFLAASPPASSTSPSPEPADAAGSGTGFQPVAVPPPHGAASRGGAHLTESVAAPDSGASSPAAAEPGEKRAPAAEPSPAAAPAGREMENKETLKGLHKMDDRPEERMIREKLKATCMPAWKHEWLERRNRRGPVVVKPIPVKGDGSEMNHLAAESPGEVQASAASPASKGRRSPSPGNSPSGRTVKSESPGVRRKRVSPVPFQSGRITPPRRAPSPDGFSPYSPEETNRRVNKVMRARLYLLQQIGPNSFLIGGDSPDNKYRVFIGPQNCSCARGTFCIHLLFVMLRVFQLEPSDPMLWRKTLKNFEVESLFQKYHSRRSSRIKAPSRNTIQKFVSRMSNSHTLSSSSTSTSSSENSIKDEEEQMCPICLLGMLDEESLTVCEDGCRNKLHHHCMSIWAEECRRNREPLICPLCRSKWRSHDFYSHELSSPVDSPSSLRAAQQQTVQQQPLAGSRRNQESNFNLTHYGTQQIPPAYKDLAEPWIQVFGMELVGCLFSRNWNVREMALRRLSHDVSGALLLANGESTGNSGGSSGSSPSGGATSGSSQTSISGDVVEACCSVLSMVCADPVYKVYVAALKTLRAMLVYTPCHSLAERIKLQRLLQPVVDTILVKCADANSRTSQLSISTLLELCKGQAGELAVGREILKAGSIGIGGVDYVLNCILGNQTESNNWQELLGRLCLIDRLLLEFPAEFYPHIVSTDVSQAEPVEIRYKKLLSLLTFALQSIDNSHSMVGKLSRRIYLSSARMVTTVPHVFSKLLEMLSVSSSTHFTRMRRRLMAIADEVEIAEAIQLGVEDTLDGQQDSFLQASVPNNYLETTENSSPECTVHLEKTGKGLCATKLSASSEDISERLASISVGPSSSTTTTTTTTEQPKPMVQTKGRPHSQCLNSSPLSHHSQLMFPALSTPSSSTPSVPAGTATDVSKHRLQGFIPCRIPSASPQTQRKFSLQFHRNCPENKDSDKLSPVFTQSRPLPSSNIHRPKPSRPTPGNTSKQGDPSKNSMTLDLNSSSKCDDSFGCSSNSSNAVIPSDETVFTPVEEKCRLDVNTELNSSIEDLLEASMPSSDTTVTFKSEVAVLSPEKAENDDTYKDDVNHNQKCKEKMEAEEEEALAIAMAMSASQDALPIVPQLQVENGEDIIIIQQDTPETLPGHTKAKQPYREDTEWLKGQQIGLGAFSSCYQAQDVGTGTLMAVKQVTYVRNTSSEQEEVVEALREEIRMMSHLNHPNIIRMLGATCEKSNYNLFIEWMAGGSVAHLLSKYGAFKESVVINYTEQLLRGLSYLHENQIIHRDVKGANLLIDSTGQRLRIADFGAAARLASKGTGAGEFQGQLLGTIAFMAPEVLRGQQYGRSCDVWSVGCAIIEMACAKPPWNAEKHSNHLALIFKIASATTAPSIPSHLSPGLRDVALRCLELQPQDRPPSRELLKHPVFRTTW
Bone morphogenetic protein receptor type-1B (Homo sapiens), sequence (O00238 whole entry): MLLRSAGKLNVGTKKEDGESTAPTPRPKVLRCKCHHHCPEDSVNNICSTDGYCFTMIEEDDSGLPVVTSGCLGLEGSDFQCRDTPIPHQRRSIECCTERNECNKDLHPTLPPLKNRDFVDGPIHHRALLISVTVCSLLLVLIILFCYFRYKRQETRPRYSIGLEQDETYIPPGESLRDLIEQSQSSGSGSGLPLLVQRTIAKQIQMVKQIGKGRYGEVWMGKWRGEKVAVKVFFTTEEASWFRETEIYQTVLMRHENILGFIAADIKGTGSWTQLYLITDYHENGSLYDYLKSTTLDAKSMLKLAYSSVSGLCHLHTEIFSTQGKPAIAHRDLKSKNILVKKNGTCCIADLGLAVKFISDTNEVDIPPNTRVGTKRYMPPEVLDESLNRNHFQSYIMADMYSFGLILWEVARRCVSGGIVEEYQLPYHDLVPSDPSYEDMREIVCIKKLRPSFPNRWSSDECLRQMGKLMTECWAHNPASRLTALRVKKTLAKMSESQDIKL
Tyrosine-protein kinase ABL1 (Homo sapiens), sequence (P00519 whole entry): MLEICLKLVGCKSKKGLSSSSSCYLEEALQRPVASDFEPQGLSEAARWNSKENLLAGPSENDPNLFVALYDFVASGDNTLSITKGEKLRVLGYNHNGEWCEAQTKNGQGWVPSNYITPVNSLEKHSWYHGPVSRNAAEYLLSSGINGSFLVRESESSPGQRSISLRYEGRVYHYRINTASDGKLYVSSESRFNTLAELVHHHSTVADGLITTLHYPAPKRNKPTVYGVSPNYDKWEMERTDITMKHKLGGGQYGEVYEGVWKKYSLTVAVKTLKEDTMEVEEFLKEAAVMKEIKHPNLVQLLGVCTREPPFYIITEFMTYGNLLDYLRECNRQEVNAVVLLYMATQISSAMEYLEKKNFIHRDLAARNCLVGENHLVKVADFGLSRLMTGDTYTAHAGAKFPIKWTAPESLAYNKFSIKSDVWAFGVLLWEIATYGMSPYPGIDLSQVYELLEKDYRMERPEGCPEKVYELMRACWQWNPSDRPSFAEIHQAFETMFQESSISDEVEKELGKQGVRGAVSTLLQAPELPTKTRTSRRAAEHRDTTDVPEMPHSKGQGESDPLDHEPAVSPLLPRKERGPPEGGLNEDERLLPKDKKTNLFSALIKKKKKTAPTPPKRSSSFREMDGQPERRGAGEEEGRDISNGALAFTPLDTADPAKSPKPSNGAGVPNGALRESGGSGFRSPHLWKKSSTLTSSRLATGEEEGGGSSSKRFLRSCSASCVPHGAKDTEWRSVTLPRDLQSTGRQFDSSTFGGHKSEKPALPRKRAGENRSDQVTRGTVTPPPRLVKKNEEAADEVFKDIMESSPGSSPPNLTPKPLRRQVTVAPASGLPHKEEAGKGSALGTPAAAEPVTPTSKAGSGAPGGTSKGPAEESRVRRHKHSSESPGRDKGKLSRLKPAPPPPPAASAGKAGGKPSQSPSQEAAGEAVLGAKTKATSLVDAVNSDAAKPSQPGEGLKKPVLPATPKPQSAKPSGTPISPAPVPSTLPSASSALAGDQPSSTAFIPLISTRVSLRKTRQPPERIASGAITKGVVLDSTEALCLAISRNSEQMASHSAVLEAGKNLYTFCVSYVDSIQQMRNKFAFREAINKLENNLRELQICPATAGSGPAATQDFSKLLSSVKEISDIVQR

Turning to `COc1cc2ncnc(N[C@H](C)c3cccc4ccccc34)c2cc1OC`, the Activity came to 94% in experiment [1]; 93% in [2]; 80% in [3]; 100% in [4]; 99% in experiment [5]; 92% in [6]. The Activity in experiment [7] is 84%; in experiment [8], 76%; in experiment [9] it was 80%.
